Source: US20240150396A1 (The Texas A&M University System, priority 2021, published 2024)
Values joined by “and” are separate entries in the source; they are usually repeats but may differ in a detail not shown here. Identical values can stand only once. Like-named read-outs stand apart in the source and are kept apart here. Residues, ends and D or L forms follow the SMILES beside them. *: point of attachment. AMC = Cc1cc(=O)oc2cc(N*)ccc12; Cbz = O=C(OCc1ccccc1)*

How the values were obtained:
[1] = system: SARS-CoV-2 in Vero E6 cells; experiment: Anti-CoV-2 activity in Vero E6 cells; format: cell-based
[2] = system: T. b. brucei procyclic forms; experiment: Growth of axenic cultures of T. b. brucei procyclic forms (PCFs); format: cell-based, Trypanosoma brucei brucei; details: axenic culture, read-out: EC50 T. b. brucei PCF
[3] = biological target: SARS-CoV-2 3CL protease (Severe acute respiratory syndrome coronavirus 2 (2019-nCoV) (SARS-CoV-2), UniProt P0DTD1); experiment: biochemical; format: biochemical; details: for Ki: read-out: Ki* 3CLpro
[4] = system: trypanosomes (T. b. brucei, T. cruzi); experiment: Anti-trypanosomal activity, culture not stated; format: cell-based; details: culture (T. b. brucei PCF/BSF or T. cruzi-infected cardiomyoblasts) not stated
[5] = biological target: T1, cruzain (Trypanosoma cruzi, UniProt P25779); experiment: biochemical; details: pH 7.5
Method in brief: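 Fluorogenic assay at 25 °C following AMC release (ex 360/em 460 nm), with typically 0.2 nM cruzain and 10% DMSO, at pH 7.5 or 5.5 buffer with 5 mM DTT.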

[6] = biological target: human cathepsin L (Homo sapiens (Human), UniProt P07711); experiment: Human cathepsin L inhibition, Z-FR-AMC assay; format: biochemical; details: for Ki: pH 5.5, 25° C.
Method: (§1) Recombinant human cathepsins B and L were purchased from Millipore Sigma and used without further treatment. The solid proteins were dissolved into a solution of 50 mM sodium acetate (pH 5.5), 1 mM EDTA, 1 mM CHAPS, 10% (v/v) DMSO, and 5 mM DTT to final concentrations of […] in 20-mL aliquots, and stored at −80° C. until needed. These samples were then diluted into the same buffer to concentrations of −100 nM, and these dilutions were stored at 4° C. and used daily until depletion.
(§2) For assays of cathepsin L and B, inhibitors were evaluated in 0.25-mL reaction mixtures containing a buffer of sodium acetate (pH 5.5), 1 mM CHAPS, 1 mM Na2EDTA, and 5 mM DTT at 25° C. The fluorogenic substrate Cbz-Phe-Arg-7-amino-4-methyl-coumarin (Z-FR-AMC) was dissolved in 100% DMSO, as were all inhibitors, and aliquots of both substrates and inhibitors were added to reaction mixtures to final concentrations of DMSO of 10% (v/v). […] Formation of the fluorescent product AMC was monitored over 30-60-minute time courses for reaction mixtures in 96-well black microplates (Corning Costar®). Rates of peptidolysis of the dipeptide-AMC substrate(s) were measured on either a SpectraMax M5 (Molecular Devices) or a Synergy HTX (Biotek, Wisnooki, VT) microplate reader with λex=360 nm, λem=460 nm in ≥8-sec intervals. Control samples excluded substrate. The measured relative fluorescence units (RFUs) of generated AMC were converted to reaction rates of μM/s by use of a standard curve of known AMC concentrations obtained for both plate readers.

[7] = biological target: human cathepsin B (Homo sapiens (Human), UniProt P07858); experiment: Human cathepsin B inhibition, Z-FR-AMC assay; format: biochemical; details: pH 5.5, 25° C.
Method: as §1, §2

[8] = system: T. b. brucei bloodstream forms; experiment: Growth of axenic cultures of T. b. brucei bloodstream forms (BSFs)
[9] = biological target: T1, cruzain; experiment: Kinetic parameters of peptide substrates for cruzain; format: biochemical; details: relative to Cbz-Phe-Arg-AMC
Method: All enzyme assays were performed at 25° C. Initial rates of the peptidolytic reaction catalyzed by cruzain were measured by monitoring the fluorescence generated by cleavage of the dipeptide-AMC bond. Assays were conducted in 96-well plates (Greiner; flat-bottom, clear black plates) in a total volume of 250 μL, containing either 50 mM MES (pH 7.5), 50 mM TAPSO, 100 mM DEA, 1 mM CHAPS, 1 mM Na2EDTA, 5 mM DTT, and 10% DMSO (v/v) or 50 mM sodium acetate (pH 5.5), 50 mM MES, 100 mM TEA, 1 mM CHAPS, 1 mM Na2EDTA, 5 mM DTT, and 10% DMSO (v/v). Substrates were dissolved in 100% DMSO and were then diluted 10-fold such that when added to reaction mixtures, final DMSO concentration was 10% (v/v). Reactions were initiated with the addition of 1-10 μL of cruzain (final concentrations: 0.1-3.0 nM (preincubation studies)). Fluorescence was measured on either a SpectraMax M5 (Molecular Devices) or a Synergy HTX (BioTek, Winooski, VT) microplate reader (λex=360 nm, λem=460 nm). Initial rates were determined from continuous kinetic time courses and calculated from the earliest time points, typically at less than 10 min.
Initial velocity data for cruzain-catalyzed reactions of fluorogenic peptide substrates were determined by fitting to eq 1 using GraphPad Prism 6.0 or SigmaPlot 12.0. For eq 1, kcat is the turnover number, [E]t is the concentration of active sites of cruzain, and Ka is the Michaelis constant for the substrate A. Cruzain concentrations were determined by spectrophotometric analysis of purified sample solutions as described.^44

[10] = biological target: T1, cruzain; details: 2% DMSO, from Ref. 40; cited from earlier work
[11] = system: human dermal fibroblasts; experiment: Human cell toxicity, resazurin viability; format: cell-based; details: human dermal fibroblasts; read-out: Human Cell Cytotoxicity CC50
Method: Primary human dermal fibroblast (HDF) cells were used to evaluate human cell toxicity of cruzain inhibitors. HDF cells were plated in a 384-well plate at 2400 cells per well (62,000 cells mL^−1). Inhibitors in 100% DMSO were added in duplicate to final concentrations of 0.001-0.1 mM and 1% DMSO (v/v) with 1% DMSO as a control sample, and cells were cultured at 37° C. for 48 h, followed by the addition of resazurin. Cell viability was then assessed by reading of fluorescence (excitation/emission: 544 nm/590 nm) after an additional 24 h of incubation.

[12] = Host cell cytotoxicity in the T. cruzi infection model; format: cell-based, mouse; details: mouse; host cardiomyoblasts; read-out: C2C12 Cytotoxicity CC50
Method: (§3) The plates were incubated at 37° C. for 48 h, and the wells were fixed with 2% paraformaldehyde in PBS and stained with 5 μg mL-1 4,6-diamidino-2-phenylindole. After at least 30 min of incubation at room temperature in the dark, the plates were read in an automated microscope, ImageXpress Micro XL (Molecular Devices), and the images were analyzed by custom-built software to quantify and assess viability of the parasites, as well as the host cells independently. The compilation of data was used to calculate the antiparasitic activity (EC50) and host cytotoxicity (CC50).
T. cruzi infection was evaluated in C2C12 murine cardiomyoblast cells. […] The wells were fixed with 2% PFA in PBS, and stained by 5 μg/ml of DAPI. After >30 min of incubation in a dark environment, the plates were read on an ImageXpress MicroXL microscope (Molecular Devices). The images were analyzed to quantify parasites as well host cells.

[13] = system: T. cruzi epimastigotes (strain Y); experiment: Growth of axenic cultures of T. cruzi epimastigotes
[14] = system: T. cruzi (Ca-I/72) in C2C12 murine cardiomyoblasts; experiment: T. cruzi-infected murine cardiomyoblasts (C2C12); format: cell-based, Trypanosoma cruzi; details: read-out: EC50 T. cruzi-infected cardiomyoblasts
Method: as §3, with “For the evaluation of the antitrypanocidal activity of cruzain inhibitors, we infected a C2C12 mouse cardiomyoblast cell line (ATCC CRL-1772) with T. cruzi strain Ca-I/72 (a gift from James Dvorak, National Institutes of Health) in […] plates. […] The plates” for “The plates”
T. cruzi infection was evaluated in C2C12 murine cardiomyoblast cells. 384-microwell plates containing C2C12 murine cardiomyoblast cells were infected with 10^3 and 10^4 cells of T. cruzi (Ca-I/72), to which was added 3-fold serially-dilutions of inhibitor with maximal concentrations of 10 μM, followed by incubation at 37° C. for 2 days. The wells were fixed with 2% PFA in PBS, and stained by 5 μg/ml of DAPI. After >30 min of incubation in a dark environment, the plates were read on an ImageXpress MicroXL microscope (Molecular Devices). The images were analyzed to quantify parasites as well host cells.

[15] = Solubility of cruzain inhibitors in 10% DMSO, light scattering; format: physicochemical
Method: Synthetic PVHIs such as 5-16 and 22-24 at final concentrations of 1-200 μM were added to 0.25 mL solutions of 10% DMSO (v/v) in clear 96-well Greiner plates, and absorbance at 620 nm was measured using a BioTek M2 Synergy plate reader at t=0 and 120 min to evaluate increased light scattering and precipitated inhibitor.

[16] = obtained >10 minutes following initiation of reaction by addition of enzyme, read-out: Ki* Cruzain
[17] = read-out: EC50 T. b. brucei BSF, axenic culture
[18] = apparent tight-binding inhibition constant, 25° C., read-out: Ki*

Chain of human cathepsin L (P07711 114-333): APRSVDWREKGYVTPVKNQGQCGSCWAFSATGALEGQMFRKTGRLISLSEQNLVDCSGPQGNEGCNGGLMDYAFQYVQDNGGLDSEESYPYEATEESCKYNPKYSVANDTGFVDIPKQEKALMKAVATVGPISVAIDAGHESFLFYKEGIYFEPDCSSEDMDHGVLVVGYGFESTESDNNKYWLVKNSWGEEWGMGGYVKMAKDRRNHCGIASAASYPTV
T1 sequence (P25779 123-467 limits assumed): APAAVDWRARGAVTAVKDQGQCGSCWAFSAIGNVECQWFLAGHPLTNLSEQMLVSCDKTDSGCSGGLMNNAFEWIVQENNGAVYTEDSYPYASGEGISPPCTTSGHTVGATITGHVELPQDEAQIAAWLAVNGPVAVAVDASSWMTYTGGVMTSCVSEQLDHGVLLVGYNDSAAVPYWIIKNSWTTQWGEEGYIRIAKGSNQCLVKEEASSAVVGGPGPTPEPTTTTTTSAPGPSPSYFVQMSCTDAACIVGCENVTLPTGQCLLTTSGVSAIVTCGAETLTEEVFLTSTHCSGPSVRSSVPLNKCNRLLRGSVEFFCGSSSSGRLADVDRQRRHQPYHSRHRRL

COc1ccc2c(c1)CC(NC(=O)C(Cc1ccccc1)NC(=O)OCc1ccccc1)C(O)O2 (centres unmarked) [Compound 31]
EC50 [1]: 2.5 µM and 2.5 to 7.5 µM | EC50 [2]: 11 µM | Ki* 3CLpro [3]: not an inhibitor of 3CL protease | Ki [3]: > 10 µM | EC50 [4]: 3 to 11 µM | Ki [5, 16]: 0.35 ± 0.03 µM | Ki ([6]; read-out: Ki* hCatL): 0.038 ± 0.002 µM | Ki ([7]; read-out: Ki* hCatB): 5.5 ± 0.4 µM | EC50 [8, 17]: 3 µM and 2.6 µM

Cc1cc(=O)oc2cc(NC(=O)[C@H](CCCN=C(N)N)NC(=O)[C@H](CCCN=C(N)N)NC(=O)OCc3ccccc3)ccc12 [Compound S6, Cbz-Arg-Arg-AMC] (Cbz-Arg-Arg-{AMC})
kcat rel [9]: 0.75 | Km [10]: 3.7 ± 0.4 µM | kcat [10]: 7.2 ± 0.1 s⁻¹ | kcat/Km [10]: 1.9e+06 ± 200000 M⁻¹ s⁻¹

O=C(NC(Cc1ccccc1)C(=O)NC1Cc2cc(Cl)ccc2OC1O)OCc1ccccc1 (centres unmarked) [Compound 33]
EC50 [2]: 10 µM | Ki ([3]; pH 7.5): > 10 µM | EC50 [4]: 6 to 10 µM | Ki [5, 16]: 0.074 ± 0.01 µM | Ki ([6]; read-out: Ki* hCatL): 0.027 ± 0.0007 µM | Ki ([7]; read-out: Ki* hCatB): 1.4 ± 0.1 µM | EC50 [8, 17]: 6 µM and 5.8 µM

O=C(N[C@@H](Cc1ccccc1)C(=O)N[C@H](/C=C/c1ccccn1)CCc1ccccc1)OCc1ccccc1 [Compound 13, Benzyl ((S)-1-Oxo-3-phenyl-1-(((S,E)-5-phenyl-1-(pyridin-2-yl)-pent-1-en-3-yl)amino)propan-2-yl)carbamate]
CC50 [11]: > 100 µM | CC50 at 48 h [12]: > 10 µM | EC50 ([2]; Trypanosoma brucei): 5.5 µM | EC50 [2]: > 10 µM | EC50 ([13]; Trypanosoma cruzi, read-out: T. cruzi axenic culture EC50, epimastigotes): > 20 µM | T. cruzi axenic culture EC50 ([13]; epimastigotes): poorly effective | Ki ([6]; 10% DMSO, read-out: Ki* Human Cathepsin L): 1.9 ± 0.2 µM | Ki ([7]; 10% DMSO, read-out: Ki* Human Cathepsin B): 6.5 ± 0.9 µM | EC50 ([8]; Trypanosoma brucei, read-out: EC50 T. b. brucei BSF, axenic culture): 4 ± 2 µM | EC50 ([14]; C2C12 murine cardiomyoblasts): 5.9 ± 0.3 µM | EC50 ([14]; Trypanosoma cruzi, C2C12, C2C12 murine cardiomyoblasts): 5 to 10 µM

O=C(N[C@@H](Cc1ccccc1)C(=O)N[C@H](/C=C/c1ccccc1)Cc1ccccc1)OCc1ccccc1 [Compound 5, Benzyl ((S)-1-(((S,E)-1,4-Diphenylbut-3-en-2-yl)amino)-1-oxo-3-phenylpropan-2-yl)carbamate]
Ki ([5]; apparent initial inhibition constant, 25° C., read-out: Ki): 1.8 ± 0.1 µM | Ki [5, 18]: 0.87 µM | aqueous solubility [15]: poor aqueous solubility

Cc1cc(=O)oc2cc(NC(=O)C(C)NC(=O)C(Cc3ccccc3)NC(=O)OCc3ccccc3)ccc12 (stereo not drawn) [Compound S12, Cbz-Phe-Ala-AMC]
kcat rel [9]: 0.09 | Km [10]: 38 ± 2 µM | kcat [10]: 0.89 ± 0.06 s⁻¹ | kcat/Km [10]: 23000 ± 3000 M⁻¹ s⁻¹

O=C(N[C@@H](Cc1ccccc1)C(=O)N[C@H](/C=C/c1ccc([N+](=O)[O-])cc1)Cc1ccccc1)OCc1ccccc1 [Compound 6, Benzyl ((S)-1-(((S,E)-4-(4-Nitrophenyl)-1-phenylbut-3-en-2-yl)-amino)-1-oxo-3-phenylpropan-2-yl)carbamate]
Ki [5, 18]: 0.37 ± 0.02 µM | aqueous solubility [15]: poor aqueous solubility

O=C(NC(Cc1ccccc1)C(=O)NC1Cc2cc(F)ccc2OC1O)OCc1ccccc1 (centres unmarked) [Compound 34]
EC50 [1]: 4 µM and 2.5 to 7.5 µM | EC50 [2]: 11.1 µM | Ki ([3]; pH 7.5): > 10 µM | EC50 [4]: 3 to 11 µM | Ki [5, 16]: 0.048 ± 0.002 µM | Ki ([6]; read-out: Ki* hCatL): 0.023 ± 0.001 µM | Ki ([7]; read-out: Ki* hCatB): 2.3 ± 0.2 µM | EC50 [8, 17]: 2.7 µM | EC50 ([14]; C2C12 murine cardiomyoblasts): 3.5 µM and 3 to 5.7 µM

COC(=O)c1ccc2c(c1)CC(NC(=O)C(Cc1ccccc1)NC(=O)OCc1ccccc1)C(O)O2 (centres unmarked) [Compound 35]
EC50 [1]: 2.5 µM | EC50 [2]: 6.7 µM | EC50 ([13]; read-out: T. cruzi axenic culture EC50, epimastigotes): 2 to 20 µM | Ki ([3]; pH 7.5): > 10 µM | EC50 [4]: 3.5 to 6.7 µM | Ki [5, 16]: 0.018 ± 0.0005 µM | inhibits cathepsin L more potently than cruzain [6]: 6 fold | Ki ([6]; read-out: Ki* hCatL): 0.0108 ± 0.0008 µM | Ki ([7]; read-out: Ki* hCatB): 0.67 ± 0.03 µM | EC50 ([14]; C2C12 murine cardiomyoblasts): 3.5 ± 0.3 µM
